The record followed here is patent publication US11326183B2, “VCN enhancer compositions and methods of using the same” (priority 2016, dated 2022).

For data set [1], the system named is hCD34+ cells. In words: VCN of pooled colonies after 14 day MethoCult culture, staurosporine and/or PGE2. Format: cell-based, human. The settings on record: for VCN compared to controls or other treatments, in words: mean VCN. The procedure: (§1) Washed cells were resuspended in 200 μL SCGM and then transferred to 3 mL aliquots of cytokine-supplemented methylcellulose (for example, Methocult M4434 Classic). 1.1 mL was then transferred to parallel 35-mm tissue culture dishes using a blunt 16-gauge needle. Dishes were maintained in a standard humidified tissue culture incubator for 12-16 days and colonies were scored for size, morphology, and cellular composition. Individual colonies were then picked for subsequent VCN analysis or the contents of an entire 35-mm dish were pooled and then subject to VCN analysis.
Cells were then transduced with LVV and cultured in the presence of protamine sulfate (standard), PGE2 or vehicle. After transduction, cells were washed and cultured in MethoCult for 14 days.
After a 14 day MethoCult culture, pooled colonies were collected and analyzed for VCN. Mean VCN data is shown. […] FIG. 8.

For data set [2], the system named is hCD34+ grafts. In words: Non-restrictive insertion site analysis (polyclonality).
Description: Identified insertion sites were mapped within gene regions to examine the lentiviral integration profile. […] Insertion sites were also quantified as the percent of total reads. The top 10 clones are shown for each treatment.
Insertion sites were pooled for each group and quantified as the percent of total reads. The top 10 clones are shown for each treatment.
Data set [3] relates to hCD34+ cells. Put plainly: Methylcellulose assay for CFC formation (stem cell potential). Format: cell-based, human. The method, then: as §1
For the 2 hour incubation, cells were subsequently washed and cultured in transduction media for the remaining 24 hours. Following the cultures, cells were plated in methylcellulose for CFC formation. […] FIG. 2B. […] FIG. 2A.

For data set [4], the system named is hCD34+ cells. In words: Transgene (LNGFR) expression by flow cytometry. It is filed as cell-based, human. Particulars: 200 nM staurosporine 2 hours, 24 hour transduction.
The subject of data set [5] is bulk hCD34+ cells and CD34+CD38LoCD90+CD45RA- phenotypic stem cells. Put plainly: Single-cell PCR assay of transduction efficiency in bulk and CD34+CD38LoCD90+CD45RA- cells. It is filed as cell-based, human. Particulars: 400 nM or 800 nM staurosporine 2 hours. The method, then:
(§2) Washed cells were resuspended in 2 mL Stem Cell Growth Medium (SCGM)+cytokines and transferred to a standard 12-well non-adherent tissue culture plate. Cells were maintained for an additional 6 days in a standard humidified tissue culture incubator (5% CO2) and then subjected to Vector Copy Number (VCN) analysis or single-cell nested PCR to determine transduction efficiency. Both VCN and the single-cell nested PCR assay were performed with qPCR using primers and probes specific to both the vector and an endogenous control gene. VCN was determined by dividing the amount of vector signal by the amount of the endogenous control gene. For the single-cell nested PCR assay, wells that contained a cell positive for the endogenous control gene and wells that contained a marked cell positive for both the vector and the endogenous control gene were enumerated, and the proportion of marked cells, or transduction efficiency, was calculated.
Thawed hCD34+ cells were stained with antibodies against cell surface markers for phenotypic HSCs (CD34^+CD38^LoCD90^+CD45^RA− cells) and then sorted using a Sony Cell Sorter. […] After culture, the cells were then single-cell sorted into 96 well plates and analyzed via the single-cell PCR assay to assess transduction efficiency, the percent lentiviral vector positive cells. […]

Data set [6] deals with long-term NSG repopulating cells. In words: VCN of bone marrow from NSG mice 4 months post-transplant of transduced hCD34+ cells. It is filed as in vivo. From the text:
(§3) HSCs transduced with lentivirus were transplanted into NOD/SCID Gamma (NSG) mice to assess the effect of candidate compounds on viral transduction of human long-term hematopoietic stem cells. Transduced cells were washed and resuspended in phosphate-buffered saline (PBS) and transplanted into the tail vein of sub-myeloablated adult NSG mice, with minimal residual toxicity. Mice were housed in a pathogen-free environment per standard IACUC animal care guidelines. At 4 months post-transplant bone marrow (BM) was harvested from both femurs and analyzed for both VCN and engraftment of human cells by staining with an anti-hCD45 antibody (BD #561864) followed by flow cytometry analysis.
(§4) Following transduction, cells were washed and injected into busulfan-treated NSG mice. Aliquots of the drug product were retained for in vitro analysis. […] FIG. 4A. […] FIG. 4A. After 4 months in vivo, NSG mice were sacrificed and BM was collected and analyzed for VCN of the engrafted hCD34+ cells. There was an overall decrease in mean VCNs across all groups in vivo as compared to the drug product VCNs, indicating higher transduction of short-term progenitors rather than long-term stem cells. FIG. 4B.

For data set [7], the system named is transplanted hCD34+ cells. Put plainly: Engraftment and differentiation of transplanted hCD34+ cells in NSG mice (flow cytometry of BM). It is filed as in vivo. Particulars: BM four months post-transplant.
Description: as §3
Cells were stained with an antibody cocktail recognizing various cell surface markers (CD45, CD33, CD3, CD19) and analyzed via flow cytometry. […] FIG. 5B.
(In general: A flow cytometer gives signals particle by particle.)

Data set [8] relates to hCD34+ cells. Put plainly: BlaM (BLAM) assay for assessment of viral entry. Format: cell-based, human. The method, then:
Cells were transduced for 2 hours in the presence of F108, PGE2, and a virus encoding a β-lactamase-Vpr fusion protein. Following transduction, cells were washed and incubated with a fluorescent β-lactamase substrate for 30-60 minutes. β-lactamase cleavage was analyzed by flow cytometry: uncleaved substrate is GFP^+, and cleavage of the fluorescent β-lactamase results in a Pacific Blue^+ signal. β-lactamase cleavage indicates lentivirus entry into the cell. See also, Cavrois et al. Nature Biotechnology. 2002.
Cells transduced for 2 hours were then subjected to staining and flow analysis for the BLAM assay to quantify viral entry. […]. FIGS. 1B and 1C.

The subject of data set [9] is hCD34+ cells. In words: Vector copy number (VCN) analysis of hCD34+ cells transduced with LVV after staurosporine treatment. It is filed as cell-based, human. The method, then:
as §2, §1
Cells transduced for 2 hours were then subjected to staining and flow analysis for the BLAM assay to quantify viral entry. […] FIG. 1A. […] FIGS. 1B and 1C.
These seven cell lots had been prospectively classified as low, medium, or high transducing cell lots. A low transducing cell lot is defined here as having a mean VCN <0.5 in vehicle-treated transductions, a medium transducing cell lot is defined here as having a mean 0.5<VCN<1, and a high transducing cell lot is defined here as having a mean VCN>1. […] This property of leveling average VCN among cell lots with different transducibility could aid in controlling variability between cell lots and normalizing drug product VCNs.
as §4

Structures are written as SMILES. Entries after “also recorded” stand apart in the source; their conditions may differ.

For the molecule `CCCCC[C@H](O)/C=C/[C@H]1[C@H](O)CC(=O)[C@@H]1C/C=C\CCCC(=O)O` [PGE2, prostaglandin E2], the “VCN compared to controls or other treatments, in words” value in data set [1] was “increased VCN compared to controls”.
Turning to `CN[C@@H]1C[C@H]2O[C@@](C)([C@@H]1OC)n1c3ccccc3c3c4c(c5c6ccccc6n2c5c31)C(=O)NC4` [staurosporine, Staurosporine], the “clonality of engrafted cells (insertion site profile)” value in [2] (BM four months post-transplant, top 10 clones) was “polyclonal insertion site profile similar to vehicle treated cells”. The “lentiviral integration profile of transduced cells” value in data set [2] (pre-transplant drug product, insertion sites mapped within gene regions) is reported as “did not appear to skew”. In addition, the “clonality of pre-transplantation samples” value in data set [2] (pre-transplant drug product, top 10 clones as percent of total reads) is given as “polyclonality”. Further, the colony formation ability entry in data set [3] (2 hour exposure, 200 nM, 400 nM or 800 nM) was “retain colony formation ability and do not significantly differ from control-treated cells; also recorded: did not affect the ability of the hCD34^+ cells to form colonies”. For the same molecule, the colony-forming potential result in data set [3] (24 hour exposure, 800 nM) is given as “few hCD34^+ cells that retain colony-forming potential”. For the same molecule, the “decrease in CFC formation” value in data set [3] (24 hour exposure, lower doses (200 nM, 400 nM)) was more than 50%. For the same molecule, the “reduction in CFC formation” value in [3] (24 hours exposure, 3 different concentrations of staurosporine) was more than 50%. The “fold increase in transgene expression (LNGFR)” value in [4] is given as 1.5 fold. The “transduction efficiency (percent lentiviral vector positive cells) versus standard transduction” value in [5] is “increased transduction efficiency compared to standard transduction conditions; also recorded: higher than the transduction efficiency of the cells transduced using the standard transduction protocol”. The “fold improvement in mean in vivo VCN of BM relative to vehicle” value in [6] (400 nM staurosporine prior to transduction) is recorded as 3 fold; in data set [6] (800 nM staurosporine prior to transduction), 4 fold. The “effect of staurosporine treatment on engraftment” value in data set [7] (400 nM or 800 nM) is on record as “does not affect engraftment; also recorded: no statistically significant effect”. Moreover, the “proportion of myeloid (CD33+) or lymphoid (CD3+ or CD19+) cells / differentiation capabilities” value in [7] (400 nM or 800 nM) is reported as “is maintained; also recorded: no difference”. The “level of engraftment of hCD34+ cells” value in data set [7] (all groups (vehicle, 400 nM, 800 nM staurosporine)) is 30-40%. Further, in data set [1], the “VCN compared to controls or other treatments, in words” value is on record as “increased VCN compared to controls; also recorded: outperforms PGE2 addition”. For the same molecule, the “fold increase in VCN” value in [1] (staurosporine two hours before transduction) is on record as 3 fold. In addition, the “increase in the amount of cells containing LVV compared to vehicle-treated controls” value in data set [8] (200 nM staurosporine 2 hours, washed, 2 hour transduction) is on record as approximately 50%. Besides, in data set [8] (staurosporine-treated hCD34+ cells, two MOIs), the “percentage of cells containing vector by BLAM assay, fold higher than controls” value amounted to 1.5 fold. Besides, in [9] (200 nM staurosporine 2 hours, washed, 24 hour transduction), the “fold increase in (mean) VCN versus control” value is reported as 2 fold. In addition, the “mean VCN of the drug product, in words” value is recorded as “did not significantly improve the mean VCN” in [9] (400 nM staurosporine 2 hours) and “VCN enhancement” in [9] (800 nM staurosporine). Besides, the “fold improvement in mean VCN of the drug product (pooled colonies) versus vehicle” value in data set [9] (800 nM staurosporine 2 hours) is given as “approximately 2 fold”. In addition, the “fold increase in average VCN” value in [9] (800 nM staurosporine 2 hours, high transducing cell lots (mean VCN>1)) turned out to be 1.2 fold; in data set [9] (800 nM staurosporine 2 hours, low transducing cell lots (mean VCN <0.5)), 2.3 fold; in data set [9] (800 nM staurosporine 2 hours, medium transducing cell lots (0.5<VCN<1)), 1.5 fold. The “effect of increasing staurosporine concentration on VCN enhancement” value in data set [9] (200, 400, 800 nM, high transducing cell lots) is recorded as “plateaus”. The “effect of increasing staurosporine concentration on mean VCN” value in data set [9] (200, 400, 800 nM, low and medium transducing cell lots) is “trend for increasing mean VCN”.
